The text below walks through data of patent US7713926B2, “Method of producing partial peptide of enolase protein from Plasmodium falciparum” (National University Corporation Gunma University, priority 2004, dated 2010).

This assay deals with antibodies existing in sera from Plasmodium falciparum malaria patients and non-infected individuals. Description: Fluorescent ELISA of human sera on plate-fixed peptide compound (antibody level). The following applies: peptide fixed on plastic plate as antigen. Type of assay: binding. The protocol: An antigen solution was prepared by dissolving 500 μg of the peptide compound (SEQ ID NO: 13) synthesized in Example 10 in 100 μl of dimethyl sulfoxide and by subsequently adding 1900 μl of a 0.05 M carbonate buffer (pH 9.6). The prepared antigen solution was dispensed by […] in each of […] on a plastic plate for fixation of the peptide compound.
The sera collected from Plasmodium falciparum malaria patients under informed consent at hospitals in Japan were used as subject sera, and the sera collected from non-infected individuals under informed consent in Japan were used as control sera. The subject sera and the control sera were individually added to the wells on the plastic plate to allow the antibodies existing in the respective sera to react with the peptide compound (SEQ ID NO: 13).
After removal of the serum, an enzyme-labeled secondary antibody against human immunoglobulin was added to each well for the immunological reaction. […] The measured antibody levels were expressed by relative fluorescence unit (RFU values).
FIG. 7 is a graph showing antibody levels of sera (1-7) from Plasmodium falciparum-infected patients and those of sera (8-12) from non-infected individuals (for the purpose of comparison) measured by the fluorescent ELISA method with the synthesized peptide compound (SEQ ID NO: 13). […]

Take “H-Glu-Glu-Glu-Glu-Ala-Ser-Glu-Phe-Tyr-Asn-Ser-Glu-Asn-Lys-Thr-Tyr-Asp-Leu-Asp-Phe-Lys-Thr-Pro-Asn-Asn-Asp-Gly-Gly-OH (H-EEEEASEFYNSENKTYDLDFKTPNNDGG-OH) [SEQ ID NO: 13, partial peptide of enolase from Plasmodium falciparum, used as ELISA antigen]”: the “average antibody level of the non-infected individuals” value (control sera (8-12) from non-infected individuals, same fluorescent ELISA) is 67 RFU. Also, where the note is “sera (1-7) from Plasmodium falciparum-infected patients, enzyme-labeled secondary antibody against human immunoglobulin, 4-methylumbelliferyl phosphate”, the “average antibody level of the malaria patients” value turned out to be 181 RFU.
